Results published in PMC8445441, “Elucidating the mechanism by which synthetic helper peptides sensitize Pseudomonas aeruginosa to multiple antibiotics” (PLoS Pathogens, 2021).
Like-named read-outs stand apart in the source and are kept apart here.

What was measured:
P. aeruginosa HM-214 = conditions: strain HM-214; antibiotic + D-11 (MICb/MICbc 128/4)
In short: (§1)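 After 18 h at 37 °C, the lowest concentration showing no visible growth was read as the MIC. Drugs were serially diluted two-fold in MHB and combined with an equal volume of inoculum (~1 × 10^6 CFU/mL), following CLSI broth microdilution; run in triplicate.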

P. aeruginosa AUMC-Pa-2 = conditions: strain AUMC-Pa-2; antibiotic + D-11 (MICb/MICbc 64/4)
In short: as §1

P. aeruginosa AUMC-Pa-1 = conditions: strain AUMC-Pa-1; antibiotic + D-11 (MICb/MICbc 128/4)
In short: as §1

P. aeruginosa PA14 = experiment: microbe, parasite or virus in culture; set-up: MICa: MIC of the antibiotic / MICac: MIC of the antibiotic in the combination: unit not given beside the values; conditions: strain PA14
In short: as §1

P. aeruginosa NR-31040 = experiment: microbe, parasite or virus in culture; set-up: MICa: MIC of the antibiotic / MICac: MIC of the antibiotic in the combination: unit not given beside the values; conditions: strain NR-31040
In short: as §1

P. aeruginosa NR-31041 = experiment: microbe, parasite or virus in culture; set-up: MICa: MIC of the antibiotic / MICac: MIC of the antibiotic in the combination: unit not given beside the values; conditions: strain NR-31041
In short: as §1

P. aeruginosa ATCC27853 = experiment: microbe, parasite or virus in culture; set-up: MICa: MIC of the antibiotic / MICac: MIC of the antibiotic in the combination: unit not given beside the values; conditions: strain ATCC27853
In short: as §1

P. aeruginosa PAK = experiment: microbe, parasite or virus in culture; set-up: MICa: MIC of the antibiotic / MICac: MIC of the antibiotic in the combination: unit not given beside the values; conditions: strain PAK
In short: as §1

[1] = tested on: clinical P. aeruginosa isolates; experiment: microbe, parasite or virus in culture; conditions: Pseudomonas aeruginosa, 18 h, antibiotic alone
In short: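 MIC is the lowest drug concentration showing no visible growth after 18 h at 37 °C. Two-fold dilutions in MHB were combined with an equal volume of bacterial suspension (about 1 × 10^6 CFU/mL), following CLSI broth microdilution, in triplicate.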

P. aeruginosa AUMC-Pa-5 = experiment: microbe, parasite or virus in culture
In short: as §1

P. aeruginosa AUMC-Pa-4 = experiment: microbe, parasite or virus in culture; conditions: strain AUMC-Pa-4
In short: as §1

P. aeruginosa AUMC-Pa-6 = experiment: microbe, parasite or virus in culture; conditions: strain AUMC-Pa-6
In short: as §1

P. aeruginosa PAO1 = experiment: microbe, parasite or virus in culture; conditions: PAO1
In short: as §1

P. aeruginosa AUMC-Pa-3 = experiment: microbe, parasite or virus in culture
In short: as §1

[2] = antibiotic + D-11 (MICb/MICbc 128/4)
[3] = antibiotic alone, unit not given
[4] = with D-11 at MICbc 4, unit not given
[5] = antibiotic + D-11 (MICb/MICbc 64/4)

With `C[C@@H](O)[C@H]1C(=O)N2C(C(=O)O)=C(S[C@@H]3CN[C@H](C(=O)N(C)C)C3)[C@H](C)[C@H]12` [Meropenem] the FICI (P. aeruginosa HM-214) was 1.031, the FICI (P. aeruginosa AUMC-Pa-2) was 2.063 and the FICI (P. aeruginosa AUMC-Pa-1) was 1.031. For the same compound, the FICI (P. aeruginosa PA14; [2]) was 1.031, the “MICa: MIC of the antibiotic” value (P. aeruginosa PA14; [3]) was 2/2 and the “MICac: MIC of the antibiotic in the combination” value (shortened to “MICac: MIC of the antibiotic”) (P. aeruginosa PA14; [4]) was 2/2. For the same compound, the FICI (P. aeruginosa NR-31040; [2]) was 0.531, the “MICa: MIC of the antibiotic” value (P. aeruginosa NR-31040; [3]) was 2 and the “MICac: MIC of the antibiotic” value (P. aeruginosa NR-31040; [4]) was 1. For the same compound, the FICI (P. aeruginosa NR-31041; [5]) was 0.563, the “MICa: MIC of the antibiotic” value (P. aeruginosa NR-31041; [3]) was 4 and the “MICac: MIC of the antibiotic” value (P. aeruginosa NR-31041; [4]) was 2. For the same compound, the FICI (P. aeruginosa ATCC27853; antibiotic + D-11 (MICb/MICbc 32/4)) was 1.125, the “MICa: MIC of the antibiotic” value (P. aeruginosa ATCC27853; [3]) was 1/1 and the “MICac: MIC of the antibiotic” value (P. aeruginosa ATCC27853; [4]) was 1/1. For the same compound, the FICI (P. aeruginosa PAK; [5]) was 1.063, the “MICa: MIC of the antibiotic” value (P. aeruginosa PAK; [3]) was 1/1 and the “MICac: MIC of the antibiotic” value (P. aeruginosa PAK; [4]) was 1/1. For the same compound, the MIC ([1]; read-out: Antibiotic sensibility (MIC) of clinical P. aeruginosa isolate AUMC-Pa-1, strain AUMC-Pa-1) was 1 µM, the MIC ([1]; read-out: Antibiotic sensibility (MIC) of clinical P. aeruginosa isolate AUMC-Pa-2, strain AUMC-Pa-2) was 1 µM and the MIC ([1]; read-out: Antibiotic sensibility (MIC) of clinical P. aeruginosa isolate AUMC-Pa-3, strain AUMC-Pa-3) was 0.25 µM. It also gave an MIC ([1]; read-out: Antibiotic sensibility (MIC) of clinical P. aeruginosa isolate AUMC-Pa-4, strain AUMC-Pa-4) of 2 µM, an MIC ([1]; read-out: Antibiotic sensibility (MIC) of clinical P. aeruginosa isolate AUMC-Pa-5, strain AUMC-Pa-5) of 0.25 µM and an MIC ([1]; read-out: Antibiotic sensibility (MIC) of clinical P. aeruginosa isolate AUMC-Pa-6, strain AUMC-Pa-6) of 2 µM. The MIC ([1]; read-out: Antibiotic sensibility (MIC) of clinical P. aeruginosa isolate HM-214, strain HM-214) was 0.25 µM, the MIC ([1]; read-out: Antibiotic sensibility (MIC) of clinical P. aeruginosa isolate NR-31040, strain NR-31040) was 2 µM and the MIC ([1]; read-out: Antibiotic sensibility (MIC) of clinical P. aeruginosa isolate NR-31041, strain NR-31041) was 4 µM. The MIC (P. aeruginosa AUMC-Pa-5; Pseudomonas aeruginosa, AUMCPA5, 18 h, read-out: MICa: MIC of the antibiotic) was 0.25 µM, the FICI (P. aeruginosa AUMC-Pa-5; strain AUMC-Pa-5, antibiotic + D-11 (MICb/MICbc 64/4)) was 2.063 and the “MICac: MIC of the antibiotic” value (P. aeruginosa AUMC-Pa-5; strain AUMC-Pa-5, with D-11 at MICbc 4, unit not given) was 0.5. The FICI (P. aeruginosa AUMC-Pa-4; [2]) was 1.031, the “MICa: MIC of the antibiotic” value (P. aeruginosa AUMC-Pa-4; [3]) was 2/2 and the “MICac: MIC of the antibiotic” value (P. aeruginosa AUMC-Pa-4; [4]) was 2/2. For the same compound, the FICI (P. aeruginosa AUMC-Pa-6; [5]) was 2.063, the “MICa: MIC of the antibiotic” value (P. aeruginosa AUMC-Pa-6; [3]) was 2 and the “MICac: MIC of the antibiotic” value (P. aeruginosa AUMC-Pa-6; [4]) was 4. The MIC (P. aeruginosa PAO1; Pseudomonas aeruginosa, PAO1, 18 h, read-out: MICa: the MIC of antibiotics, S3 Table, antibiotic alone) was 2 µM, the FICI (P. aeruginosa PAO1; S3 Table, antibiotic + 4 μM D-11) was 0.375 and the “MICac: the MIC for the antibiotic in the combination” value (P. aeruginosa PAO1; S3 Table, with 2 μM D-11) was 1 µM. The “MICac: the MIC for the antibiotic in the combination” value (P. aeruginosa PAO1; S3 Table, with 4 μM D-11) was 0.5 µM, the MIC (P. aeruginosa AUMC-Pa-3; Pseudomonas aeruginosa, AUMCPA3, 18 h, read-out: MICa: MIC of the antibiotic) was 0.25 µM and the FICI (P. aeruginosa AUMC-Pa-3; strain AUMC-Pa-3, antibiotic + D-11 (MICb/MICbc 128/4)) was 1.031. For the same compound, the “MICac: MIC of the antibiotic” value (P. aeruginosa AUMC-Pa-3; strain AUMC-Pa-3, with D-11 at MICbc 4, unit not given) was 0.25/0.25.
